Data reported in ChEMBL document CHEMBL4418495, “Entpd5 inhibitors” (2012).
Activity calls are given as the source filed them. No rule for the calls is given here.

How the values were obtained:
[1] = molecular target: T1, Nucleoside diphosphate phosphatase ENTPD5 (Homo sapiens) (UniProt O75356); test: Inhibition of human recombinant ENTPD5 expressed in insect cells assessed as reduction in reduction in UDP hydrolysis by measuring inorganic phosphate release incubated for 1 hr by malachite green based assay
T1 sequence (whole entry): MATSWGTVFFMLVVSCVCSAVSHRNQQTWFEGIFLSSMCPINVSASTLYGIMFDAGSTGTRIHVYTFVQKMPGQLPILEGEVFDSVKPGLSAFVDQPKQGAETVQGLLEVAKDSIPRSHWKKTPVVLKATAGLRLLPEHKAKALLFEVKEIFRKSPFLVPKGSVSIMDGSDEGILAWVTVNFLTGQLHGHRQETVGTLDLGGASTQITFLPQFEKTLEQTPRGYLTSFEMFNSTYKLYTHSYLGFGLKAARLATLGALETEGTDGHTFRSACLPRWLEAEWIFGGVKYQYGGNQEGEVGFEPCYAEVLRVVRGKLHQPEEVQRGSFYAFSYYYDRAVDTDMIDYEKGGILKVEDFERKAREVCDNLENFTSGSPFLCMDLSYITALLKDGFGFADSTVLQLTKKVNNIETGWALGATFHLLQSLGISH

[2] = molecular target: T1, Nucleoside diphosphate phosphatase ENTPD5 (Homo sapiens); test: Inhibition of human recombinant ENTPD5 expressed in insect cells assessed as reduction in UDP hydrolysis up to 10 uM incubated for 1 hr in presence of UMP, GTP and ATP by Escherichia coli UMP kinase pyrH catalyzed UMP phosphorylation coupled luciferase assay
[3] = molecular target: T2, Uridylate kinase (Escherichia coli (strain K12)) (UniProt P0A7E9); test: Inhibition of recombinant Escherichia coli UMP kinase pyrH catalyzed UMP phosphorylation in presence of GTP and ATP incubated for 1 hr by luminescence based assay
T2 sequence (whole entry): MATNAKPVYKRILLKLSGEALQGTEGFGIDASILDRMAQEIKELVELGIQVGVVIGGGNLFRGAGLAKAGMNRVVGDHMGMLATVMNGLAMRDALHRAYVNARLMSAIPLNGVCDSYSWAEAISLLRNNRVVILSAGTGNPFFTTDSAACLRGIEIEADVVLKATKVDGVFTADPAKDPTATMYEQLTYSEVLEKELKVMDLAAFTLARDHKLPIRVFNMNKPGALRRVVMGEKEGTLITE

[4] = molecular target: T1, Nucleoside diphosphate phosphatase ENTPD5 (Homo sapiens); test: Inhibition of human recombinant ENTPD5 expressed in insect cells assessed as reduction in UDP hydrolysis at 1 uM incubated for 1 hr in presence of UMP, GTP and ATP by Escherichia coli UMP kinase pyrH catalyzed UMP phosphorylation coupled luciferase assay

Row | Compound | inhibition [1] | inhibition [2] | inhibition [3] | inhibition [4]
1 | CC(=O)c1ccc(-c2ccc(/C=C3\C(=O)NC(=S)N(c4ccc(Br)cc4)C3=O)o2)cc1 | Active | Dose-dependent effect | inactive | Active
2 | O=C1NC(=S)N(c2ccc(Br)cc2)C(=O)/C1=C/c1ccc(-c2ccc(F)cc2)o1 | Active | Dose-dependent effect | inactive | Active
3 | C=CCN1C(=O)/C(=C\c2cccn2C)C(=O)NC1=S | Active | Dose-dependent effect | inactive | Active
4 | O=C1/C(=C/c2ccc(O)c(O)c2)SC(=S)N1c1ccc([N+](=O)[O-])cc1 | Active | Dose-dependent effect | inactive | Active
5 | O=C1Nc2ccc(Br)cc2/C1=C1/SC(=S)N(c2ccc(Cl)cc2)C1=O | Active | Dose-dependent effect | inactive | Active
6 | Cc1ccc(CNC(=O)c2cc(-c3ccc(Br)s3)nc3ccccc23)o1 | Active | Dose-dependent effect | inactive | Active
7 | COc1ccc2c(c1)C1C=CCC1C(c1ccc([N+](=O)[O-])cc1)N2 (configuration not stated) | Active | Dose-dependent effect | inactive | Active
8 | O=C(CCl)N(CC(=O)N1c2ccccc2-n2cccc2C1c1ccc(Cl)cc1)C1CC1 (configuration not stated) | Active | Dose-dependent effect | inactive | Active
9 | Cc1ccc(C2=C/C(=C/c3ccc(C)c([N+](=O)[O-])c3)C(=O)O2)c(C)c1 | Active | Dose-dependent effect | inactive | Active
10 | Cc1ccc(/C=C/C(=O)Nc2nc3ccc(Cl)cc3s2)o1 | Active | Dose-dependent effect | inactive | Active
11 | O=C1NC(=O)N(c2ccc(Cl)cc2)C(=O)/C1=C/c1cnn(-c2ccccc2)c1 | Active | Dose-dependent effect | inactive | Active
12 | O=C1S/C(=C/c2ccco2)C(=O)N1c1ccc(Cl)cc1 | Active | Dose-dependent effect | inactive | Active
13 | O=C1NC(=O)N(Cc2ccco2)C(=O)/C1=C\c1ccc(-c2ccc(Cl)c([N+](=O)[O-])c2)o1 | Active | Dose-dependent effect | inactive | Active
14 | O=C(Cn1cc(/C=C2\C(=O)NC(=O)N(Cc3ccccc3)C2=O)c2ccccc21)NCc1ccccc1 | Active | Dose-dependent effect | inactive | Active
15 | O=C(c1ccc(C(F)(F)F)cc1)N(CCc1csc2nc(-c3ccc4ccccc4c3)cn12)Cc1ccco1 | Active | Dose-dependent effect | inactive | Active
16 | N#CC1=C(N)NC(SCC(=O)c2cc3ccccc3oc2=O)=C(C#N)C1=C1C=CC(=O)C=C1 | Active | Dose-dependent effect | inactive | Active
17 | O=C1/C(=C/c2ccc(-c3cccc(C(F)(F)F)c3)o2)SC(=S)N1Cc1ccco1 | Active | Dose-dependent effect | inactive | Active
18 | N=C1NC(=O)/C(=C/C=C/c2ccc([N+](=O)[O-])o2)S1 | Active | Dose-dependent effect | inactive | Active
19 | O=[N+]([O-])c1cccc(C2C3CC=CC3c3cc([N+](=O)[O-])cc4c3N2CC2CC=CC42)c1 (configuration not stated) | Active | Dose-dependent effect | inactive | Active

Row | Compound | inhibition [1] | inhibition [2] | inhibition [3] | inhibition [4]
20 | O=C1NC(=O)N(c2ccc(Cl)cc2)C(=O)/C1=C/c1cccn1-c1ccccc1 | Active | Dose-dependent effect | inactive | Active
21 | CCN1C(=O)c2ccc(-c3ccc(C=C4C(=O)NC(=S)NC4=O)o3)cc2C1=O | Active | Dose-dependent effect | inactive | Active
22 | C=C[S+]([O-])c1sc(Cl)c(N2CCN(c3c(Cl)sc([S+]([O-])C=C)c3[N+](=O)[O-])CC2)c1[N+](=O)[O-] (configuration not stated) | Active | Dose-dependent effect | inactive | Active
23 | O=C(C(c1ccccc1)c1ccccc1)N(CCc1csc2nc(-c3ccc4ccccc4c3)cn12)Cc1ccco1 | Active | Dose-dependent effect | inactive | Active
24 | CN1C(=O)c2ccc(NC(=S)NC(=O)CC34CC5CC(CC(C5)C3)C4)cc2C1=O | Active | Dose-dependent effect | inactive | Active
25 | Cc1ccc(-c2csc3nc(SCc4c(C)noc4C)n(-c4ccccc4)c(=O)c23)o1 | Active | Dose-dependent effect | inactive | Active
26 | O=C1NC(=O)C(=Cc2cn(-c3ccccc3)nc2-c2ccc(F)cc2)C(=O)N1 | Active | Dose-dependent effect | inactive | Active
27 | O=S(=O)(c1cccc2cccnc12)N(CCc1csc2nc(-c3ccc4ccccc4c3)cn12)Cc1ccco1 | Active | Dose-dependent effect | inactive | Active
28 | O=C(Cn1cc(/C=C2/C(=O)NC(=O)N(c3ccc4c(c3)OCO4)C2=O)c2ccccc21)Nc1ccccc1 | Active | Dose-dependent effect | inactive | Active
29 | Nc1nc(SCc2nnc(Nc3ccccc3)s2)nc2sc3c(c12)CCC3 | Active | Dose-dependent effect | inactive | Active
30 | COCCNC(=O)Cn1cc(/C=C2\C(=O)NC(=O)N(C3CCCCC3)C2=O)c2ccccc21 | Active | Dose-dependent effect | inactive | Active
31 | CC(C)(C)C(=O)Nc1ccc(C(=O)Nc2ccc(-c3nc4ncccc4o3)cc2)cc1 | Active | Dose-dependent effect | inactive | Active
32 | O=C(O)C1=CC(C(c2ccc(O)c(C(=O)O)c2)c2ccc(O)c(C(=O)O)c2)C=CC1=O (configuration not stated) | Active | Dose-dependent effect | inactive | Active
33 | N#CC(c1ccc(Cl)cc1)c1c(Cl)cc(-n2ncc(=O)[nH]c2=O)cc1Cl (configuration not stated) | Active | Dose-dependent effect | inactive | Active
34 | O=C(c1ccc2c(c1)C1C=CCC1C(c1ccc(Br)cc1)N2)N1CCCCCC1 (configuration not stated) | Active | Dose-dependent effect | inactive | Active
35 | O=C(CSc1nc2c([nH]c3ccccc32)c(=O)n1-c1ccccc1)N1CCN(c2ccccc2)CC1 | Active | Dose-dependent effect | inactive | Active
36 | COc1cc(/C=C2/SC(=S)N(C3CCCCC3)C2=O)cc(Cl)c1O | Active | Dose-dependent effect | inactive | Active
37 | CC1=C(C(=O)OC(C)C)C(c2cn(-c3ccccc3)nc2-c2ccc(Cl)cc2)C(C(=O)OC(C)C)=C(C)N1 | Active | Dose-dependent effect | inactive | Active
38 | CCc1ccc(NC2=NC(=O)/C(=C/c3cc(Cl)c(OCC(=O)O)c(Cl)c3)S2)cc1 | Active | Dose-dependent effect | inactive | Active
